# The OligoGym collection
# These antisense oligonucleotides have a phosphorothioate backbone; sugars and methylation of C are not fully specified.
# Target: TRADD
# Details: ASO
# Also: test concentration or dose not given here.
row,Sequence,remaining target (mRNA or protein) (fraction of control)
1,GCCGCACTTCAGATTTCG,≥ 1
2,GCACGAAGCGCCGCAGCA,≥ 1
3,GATGCAACTCAAACAGCG,≥ 1
4,GGGCAGGTGGCGGCGGCG,0.7
5,CCCCGAGCCGCACTTCAG,0.77
6,AGATTTCGCAGCGCATCC,≥ 1
7,TCAGGGTCCCGTGGATGG,≥ 1
8,AAAGATCAAGGTGCTTCA,≥ 1
9,CCCAGCAAGTCCTCTGCC,0.75
10,CGCAGCGCATCCTCCAGC,0.99
11,CCGACAGAGAGGGCACCG,≥ 1
12,GAGTCCAGCGCCGGGTCC,0.48
13,GAGGCAGAATCCCCAATG,≥ 1
14,CCACCTTGTCCAGCGAGG,0.59
15,CACCCACTCTTCGTGCCC,≥ 1
16,GCCAGCAAAGCGTCCAGC,≥ 1
17,ACCCTAAGGCCATCCAGG,0.64
18,GCGGCGGCGGCGGCTTCA,≥ 1
19,CCACGCTGAGTGTGAGCT,0.68
20,GGGAAGGCAATCAACTCT,≥ 1
21,GGAGGAAGCGGCCACAGG,0.68
22,GGAACAGAAAAGTCTGGG,0.93

row,Sequence,remaining target (mRNA or protein) (fraction of control)
1,TGCTCGTACAGTCCCTCG,≥ 1
2,TGGGCTAGGATGCAACTC,0.67
3,CGTAGGCCAGCGAGTCCA,≥ 1
4,CGATTCACTACAGGCTGA,0.86
5,TCCACAAACAGGTATGCG,≥ 1
6,AAAGTCTGGGCAGGTGGC,0.56
7,CAAGATTGATTCCTGTTT,0.94
8,CCGTGTTATACTTTATTA,≥ 1
9,GGTTCCCACGCCCGCCAG,≥ 1
10,TAGGCCAAGTGGAGTTTC,0.58
11,TGCGGTGGATCTTCAGCA,≥ 1
12,TGCGGGTCGCTGCGGTGG,0.69
13,GACCCTGGAACAGAAAAG,0.9
14,GCCCGCAGAATCGCAGCT,0.75
15,CCCTCGCGCTCGTACTCG,0.42
16,AGCTCCAGTTGCAGCGGC,0.82
17,ATGAAGTCCAGGACACCA,≥ 1
18,CTCTTCGTGCCCATTTTG,0.89
19,GCATCCGACAGGACCACC,0.93
20,AGTTGCAGCGGCACCGAG,≥ 1
21,CTTGCGCCATTTGAGACC,0.7
22,CCGAAGCGACCTCCCCGT,≥ 1

row,Sequence,remaining target (mRNA or protein) (fraction of control)
1,TGGCTGCACCCCTGGTCT,≥ 1
2,GGATGGGAGAAGGTGAGG,0.55
3,AAACTGTAAGGGCTGGCT,0.91
4,CCCGCCGCTCTCTGCCAA,≥ 1
5,AGCTGCCATCTCACCTCC,≥ 1
6,AGTGAGCGCCCCACCTTG,0.98
7,TCCAGGTTCTCCAAAAGC,0.46
8,TCCTCTGCCAGGCTGGTG,≥ 1
9,GGATCTTCAGCATCTGCA,≥ 1
10,GTGCGCGTAGGCATCCGA,≥ 1
11,AGCGGCACCGAGTGCTGG,≥ 1
12,GGTATGCGCTGCCCACCC,≥ 1
13,AATAGCCGCAGAAGGAAC,0.83
14,CCCACCCCACACTCTATC,0.47
15,GGTGGCGGCGGCGGCGGC,0.99
16,GCTCGTACTCGTAGGCCA,≥ 1
17,ACTTTATTATCATTGCTT,0.66
18,GCTGCCCACCCACTCTTC,≥ 1
19,GCAGGTCCAGCAGATAGG,0.9
20,TCTATCAAAGTACCTGAG,≥ 1
21,CAGGCCGCCATTGGGATC,≥ 1
22,AAGGTGAGGCTGATCTCC,0.72

# Target: GNA11
# Details: ASO
row,Sequence,remaining target (mRNA or protein) (fraction of control)
1,GATCCACTTCCTCCGCTC,0.41
2,GGTGGTGGGCACGCGGAC,≥ 1
3,CGCCTGCGGTCGTAGCAT,≥ 1
4,TGGCGGTGAAGATGTTCT,≥ 1
5,CGTTGATCCGCTTGGACT,≥ 1
6,CTCCACGTCCACCTCCCG,0.31
7,AAGTAGTCCACCAGGTGC,≥ 1
8,GTCAGGTAGTACTTGGCA,0.24
9,GATGCTCGAAGGTGGTCA,0.67
10,GCGAGTACAGGATCTTGT,0.83
11,TGTTCTCCAGGTCGAAAG,0.67
12,CGAGAAACATGATGGATG,≥ 1
13,AGATGATGTTCTCCAGGT,≥ 1
14,ATCCGCTTGGACTCCTTC,0.83
15,GCCATGATGGACTCCAGA,0.25
16,ATCTTGTCCTCCAGCAGG,0.96
17,ACTGACGTACTGATGCTC,0.64
18,GCCTTGTTCTGCTCGTAC,0.75

row,Sequence,remaining target (mRNA or protein) (fraction of control)
1,TGTTCTGGTAGACGAGCT,≥ 1
2,CTTGTCCTCCTCCGAGTA,0.21
3,TACTTGGCAGAGTCGGAG,0.66
4,GGTCCGGAACAGGGCTTT,0.74
5,TGTAGAGGATCTTGAGCG,≥ 1
6,GCAGGTAGCCCAAGGTGG,0.8
7,ATGTTCTCCGTGTCGGTG,≥ 1
8,GTAGATGATCTTGTCGCT,≥ 1
9,AAGCCGCGCTTGTCCTCC,0.44
10,GATGGTGTCCTTCACGGC,≥ 1
11,TAGAGGATCTTGAGCGTC,≥ 1
12,TTGGCCTTGTTCTGCTCG,≥ 1
13,GTGGCGATGCGGTCAACG,0.99
14,CGCATCTGCTTGATGAAC,≥ 1
15,CTTGATGGCACTGACGTA,0.22
16,CGGATCATGGCCTGCATG,0.99
17,CCCGCCGCAGCTGCTTCT,0.42
